In brackets after ≈: the same amount, converted by molar mass. Where two headings read alike, the source gives them in different places.
Tested on: N. gonorrhoeae
Test: MIC determination, agar dilution (CLSI)
Format: cell-based, Neisseria gonorrhoeae
Conditions: Neisseria gonorrhoeae
In short: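 For N. gonorrhoeae, WHO 2024 reference strains served as quality control, only whole doubling-dilution MICs were reported, and isolates were classified by EUCAST v14.0 breakpoints or ECOFF. Time-kill assays followed CLSI in Columbia broth with 1% IsoVitaleX, and viable counts came from plating serial dilutions on GC agar with IsoVitaleX.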

For `Cc1c(CN(C)C(=O)/C=C/c2cnc3c(c2)N[C@H](C)[C@H](O)C(=O)N3)oc2ccccc12` [Debio 1453], the MIC (clinical N. gonorrhoeae isolate 71, Sweden 2023, read-out: Minimum inhibitory concentration) was 0.064 µg/mL (≈ 0.152 µM), the MIC (clinical N. gonorrhoeae isolate 72, Sweden 2023, read-out: Minimum inhibitory concentration) was 0.064 µg/mL (≈ 0.152 µM) and the MIC (clinical N. gonorrhoeae isolate 73, Sweden 2023, read-out: Minimum inhibitory concentration) was 0.032 µg/mL (≈ 0.0761 µM). The MIC (clinical N. gonorrhoeae isolate 74, Sweden 2023, read-out: Minimum inhibitory concentration) was 0.064 µg/mL (≈ 0.152 µM), the MIC (clinical N. gonorrhoeae isolate 75, Sweden 2023, read-out: Minimum inhibitory concentration) was 0.008 µg/mL (≈ 0.019 µM) and the MIC (clinical N. gonorrhoeae isolate 76, Sweden 2023, read-out: Minimum inhibitory concentration) was 0.064 µg/mL (≈ 0.152 µM). It also gave an MIC (clinical N. gonorrhoeae isolate 77, Sweden 2023, read-out: Minimum inhibitory concentration) of 0.064 µg/mL (≈ 0.152 µM), an MIC (clinical N. gonorrhoeae isolate 78, Sweden 2023, read-out: Minimum inhibitory concentration) of 0.032 µg/mL (≈ 0.0761 µM) and an MIC (clinical N. gonorrhoeae isolate 79, Sweden 2023, read-out: Minimum inhibitory concentration) of 0.032 µg/mL (≈ 0.0761 µM). The MIC (clinical N. gonorrhoeae isolate 80, Sweden 2023, read-out: Minimum inhibitory concentration) was 0.032 µg/mL (≈ 0.0761 µM), the MIC (clinical N. gonorrhoeae isolate 81, Sweden 2023, read-out: Minimum inhibitory concentration) was 0.064 µg/mL (≈ 0.152 µM) and the MIC (clinical N. gonorrhoeae isolate 82, Sweden 2023, read-out: Minimum inhibitory concentration) was 0.032 µg/mL (≈ 0.0761 µM). The MIC (clinical N. gonorrhoeae isolate 83, Sweden 2023, read-out: Minimum inhibitory concentration) was 0.064 µg/mL (≈ 0.152 µM), the MIC (clinical N. gonorrhoeae isolate 84, Sweden 2023, read-out: Minimum inhibitory concentration) was 0.064 µg/mL (≈ 0.152 µM) and the MIC (clinical N. gonorrhoeae isolate 85, Sweden 2023, read-out: Minimum inhibitory concentration) was 0.008 µg/mL (≈ 0.019 µM). It also gave an MIC (clinical N. gonorrhoeae isolate 86, Sweden 2023, read-out: Minimum inhibitory concentration) of 0.032 µg/mL (≈ 0.0761 µM), an MIC (clinical N. gonorrhoeae isolate 87, Sweden 2023, read-out: Minimum inhibitory concentration) of 0.016 µg/mL (≈ 0.0381 µM) and an MIC (clinical N. gonorrhoeae isolate 88, Sweden 2023, read-out: Minimum inhibitory concentration) of 0.064 µg/mL (≈ 0.152 µM). The MIC (clinical N. gonorrhoeae isolate 89, Sweden 2023, read-out: Minimum inhibitory concentration) was 0.032 µg/mL (≈ 0.0761 µM), the MIC (clinical N. gonorrhoeae isolate 90, Sweden 2023, read-out: Minimum inhibitory concentration) was 0.125 µg/mL (≈ 0.297 µM) and the MIC (clinical N. gonorrhoeae isolate 91, Sweden 2023, read-out: Minimum inhibitory concentration) was 0.032 µg/mL (≈ 0.0761 µM). It also gave an MIC (clinical N. gonorrhoeae isolate 92, Sweden 2023, read-out: Minimum inhibitory concentration) of 0.016 µg/mL (≈ 0.0381 µM), an MIC (clinical N. gonorrhoeae isolate 93, Sweden 2023, read-out: Minimum inhibitory concentration) of 0.125 µg/mL (≈ 0.297 µM) and an MIC (clinical N. gonorrhoeae isolate 94, Sweden 2023, read-out: Minimum inhibitory concentration) of 0.064 µg/mL (≈ 0.152 µM). It also gave an MIC (clinical N. gonorrhoeae isolate 95, Sweden 2023, read-out: Minimum inhibitory concentration) of 0.064 µg/mL (≈ 0.152 µM), an MIC (clinical N. gonorrhoeae isolate 96, Sweden 2023, read-out: Minimum inhibitory concentration) of 0.032 µg/mL (≈ 0.0761 µM) and an MIC (clinical N. gonorrhoeae isolate 97, Sweden 2023, read-out: Minimum inhibitory concentration) of 0.064 µg/mL (≈ 0.152 µM). It also gave an MIC (clinical N. gonorrhoeae isolate 98, Sweden 2023, read-out: Minimum inhibitory concentration) of 0.064 µg/mL (≈ 0.152 µM), an MIC (clinical N. gonorrhoeae isolate 99, Sweden 2023, read-out: Minimum inhibitory concentration) of 0.008 µg/mL (≈ 0.019 µM) and an MIC (clinical N. gonorrhoeae isolate 100, Sweden 2023, read-out: Minimum inhibitory concentration) of 0.008 µg/mL (≈ 0.019 µM). The MIC (read-out: MIC relevant for mutant selection assay, WHO Z) was 0.125 µg/mL (≈ 0.297 µM), the MIC (screening panel N. gonorrhoeae isolate A, read-out: Minimum inhibitory concentration) was 0.06 µg/mL (≈ 0.143 µM) and the MIC (screening panel N. gonorrhoeae isolate B, read-out: Minimum inhibitory concentration) was 0.03 µg/mL (≈ 0.0713 µM). It also gave an MIC (screening panel N. gonorrhoeae isolate C, read-out: Minimum inhibitory concentration) of 0.03 µg/mL (≈ 0.0713 µM), an MIC (screening panel N. gonorrhoeae isolate D, read-out: Minimum inhibitory concentration) of 0.03 µg/mL (≈ 0.0713 µM) and an MIC (screening panel N. gonorrhoeae isolate E, read-out: Minimum inhibitory concentration) of 0.03 µg/mL (≈ 0.0713 µM). The MIC (screening panel N. gonorrhoeae isolate F, read-out: Minimum inhibitory concentration) was 0.125 µg/mL (≈ 0.297 µM), the MIC (screening panel N. gonorrhoeae isolate G, read-out: Minimum inhibitory concentration) was 0.125 µg/mL (≈ 0.297 µM) and the MIC (screening panel N. gonorrhoeae isolate H, read-out: Minimum inhibitory concentration) was 0.06 µg/mL (≈ 0.143 µM). For the same molecule, the MIC (screening panel N. gonorrhoeae isolate I, read-out: Minimum inhibitory concentration) was 0.03 µg/mL (≈ 0.0713 µM), the MIC (screening panel N. gonorrhoeae isolate J, read-out: Minimum inhibitory concentration) was 0.06 µg/mL (≈ 0.143 µM) and the MIC (screening panel N. gonorrhoeae isolate K, read-out: Minimum inhibitory concentration) was 0.125 µg/mL (≈ 0.297 µM). The MIC (screening panel N. gonorrhoeae isolate L, read-out: Minimum inhibitory concentration) was 0.06 µg/mL (≈ 0.143 µM), the MIC (screening panel N. gonorrhoeae isolate M, read-out: Minimum inhibitory concentration) was 0.03 µg/mL (≈ 0.0713 µM) and the MIC (screening panel N. gonorrhoeae isolate N, read-out: Minimum inhibitory concentration) was 0.03 µg/mL (≈ 0.0713 µM). For the same molecule, the MIC (two clones of strain 6804 with FabI L257F) was 0.25 µg/mL (≈ 0.595 µM).

— article PMC12446476 (Nature Communications, 2025)
